How the values were obtained:
[1] = test system: S. cerevisiae (W303 background); assay: Fungicidal activity (growth, OD600) on S. cerevisiae; assay type: cell-based, Saccharomyces cerevisiae; details: 24 h, OD600, concentrations 2.6 to 3000 µM, NA = no activity; for IC50: Saccharomyces cerevisiae, unit inferred, read-out: Inhibitory activity against S. cerevisiae W303 (IC50); for Inhibitory activity against S. cerevisiae W303 (IC50): unit not given
Method: Next, we determined the IC50 of bis(spiropyrazolone)cyclopropanes on a different eukaryotic model: the classical budding yeast S. cerevisiae. Cells were exposed to the compounds at concentrations ranging from 2.6 to 3000 µM for 24 h. The OD600 was measured to assess cell growth. […] These resistances could be explained by the presence of the fungal cell wall, which could limit the entry of bis(spiropyrazolone)cyclopropanes 4 into the cell. Other mechanisms cannot be ruled out, such as structural differences in molecular targets.
The antimicrobial activities of the synthesized compounds were tested against yeast S. cerevisiae (background W303), as described by Teran et al.. Concentrations ranging from 2468.7 to 2.4 µM were assayed.

[2] = Stability of solutions by spectroscopic measurements; assay type: physicochemical; details: DMSO solution; 100 μM in DMSO, room temperature
[3] = MTS cell viability assay on A-549 cells; assay type: cell-based; details: Homo sapiens; 48 h, 15-150 µM, mean ± SEM of triplicates

Work on `CC1=NN(c2ccccc2)C(=O)[C@@]12C(c1ccccc1)[C@@]21C(=O)N(c2ccccc2)N=C1C` (relative stereo) [4b, (5R*,6R*)-4,10-Dimethyl-2,8,11-triphenyl-2,3,8,9-tetraazadispiro[4.0.4.1]undeca-3,9-diene-1,7-dione] yielded an IC50 [1] of 1380 ± 304 µM and a half-life at 100 µM [2] of about 7.85 h.

With `CC1=NN(c2ccccc2)C(=O)[C@@]12C(c1ccc(OC(F)(F)F)cc1)[C@@]21C(=O)N(c2ccccc2)N=C1C` (relative stereo) [4s, (5R*,6R*)-11-(4-Trifluoromethoxyphenyl)-4,10-dimethyl-2,8-diphenyl-2,3,8,9-tetraazadispiro[4.0.4.1]undeca-3,9-diene-1,7-dione] the IC50 [3] was 78.5 ± 7.08 µM, the “Inhibitory activity against S. cerevisiae W303 (IC50)” value [1] was “slight measurable effect” and the IC50 [1] was 789 ± 37.3 µM.

For `COC(=O)c1ccc(C2[C@@]3(C(=O)N(c4ccccc4)N=C3C)[C@]23C(=O)N(c2ccccc2)N=C3C)cc1` (relative stereo) [4q, (5R*,6R*)-Methyl-4[4,10-dimethyl-2,8-diphenyl-2,3,8,9-tetraazadispiro[4.0.4.1]undeca-3,9-diene-1,7-dione-11-yl]benzoate], the IC50 [3] was 85.1 ± 10.5 µM, the “Inhibitory activity against S. cerevisiae W303 (IC50)” value [1] was “slight measurable effect” and the IC50 [1] was 1090 ± 38.5 µM.

For `CC1=NN(c2ccccc2)C(=O)[C@@]12C(c1ccc([N+](=O)[O-])cc1)[C@@]21C(=O)N(c2ccccc2)N=C1C` (relative stereo) [4k, (5R*,6R*)-11-(4-Nitrophenyl)-4,10-dimethyl-2,8-diphenyl-2,3,8,9-tetraazadispiro[4.0.4.1]undeca-3,9-diene-1,7-dione], the IC50 [3] was 114 ± 6.37 µM.

For `CC1=NN(c2ccccc2)C(=O)[C@@]12C(c1cccc([N+](=O)[O-])c1)[C@@]21C(=O)N(c2ccccc2)N=C1C` (relative stereo) [4d, (5R*,6R*)-11-(3-Nitrophenyl)-4,10-dimethyl-2,8-diphenyl-2,3,8,9-tetraazadispiro[4.0.4.1]undeca-3,9-diene-1,7-dione], the IC50 [3] was 94.8 ± 4.54 µM.

Compound `CC1=NN(c2ccccc2)C(=O)[C@@]12C(c1ccc(C(F)(F)F)cc1)[C@@]21C(=O)N(c2ccccc2)N=C1C` (relative stereo) [4r, (5R*,6R*)-11-(4-Trifluoromethylphenyl)-4,10-dimethyl-2,8-diphenyl-2,3,8,9-tetraazadispiro[4.0.4.1]undeca-3,9-diene-1,7-dione] has an IC50 [3] of 78.7 ± 7.9 µM and an IC50 [1] of 1270 ± 119 µM.
